From US20180303807A1, “ANDROGEN RECEPTOR LIGANDS” (DUKE UNIVERSITY, priority 2015, published 2018)

Target: T1, AR (Homo sapiens, UniProt P10275, T878A)
T1 construct: endogenous in cells; host or cells: LNCaP cells
T1 sequence (P10275 1-920 T878A): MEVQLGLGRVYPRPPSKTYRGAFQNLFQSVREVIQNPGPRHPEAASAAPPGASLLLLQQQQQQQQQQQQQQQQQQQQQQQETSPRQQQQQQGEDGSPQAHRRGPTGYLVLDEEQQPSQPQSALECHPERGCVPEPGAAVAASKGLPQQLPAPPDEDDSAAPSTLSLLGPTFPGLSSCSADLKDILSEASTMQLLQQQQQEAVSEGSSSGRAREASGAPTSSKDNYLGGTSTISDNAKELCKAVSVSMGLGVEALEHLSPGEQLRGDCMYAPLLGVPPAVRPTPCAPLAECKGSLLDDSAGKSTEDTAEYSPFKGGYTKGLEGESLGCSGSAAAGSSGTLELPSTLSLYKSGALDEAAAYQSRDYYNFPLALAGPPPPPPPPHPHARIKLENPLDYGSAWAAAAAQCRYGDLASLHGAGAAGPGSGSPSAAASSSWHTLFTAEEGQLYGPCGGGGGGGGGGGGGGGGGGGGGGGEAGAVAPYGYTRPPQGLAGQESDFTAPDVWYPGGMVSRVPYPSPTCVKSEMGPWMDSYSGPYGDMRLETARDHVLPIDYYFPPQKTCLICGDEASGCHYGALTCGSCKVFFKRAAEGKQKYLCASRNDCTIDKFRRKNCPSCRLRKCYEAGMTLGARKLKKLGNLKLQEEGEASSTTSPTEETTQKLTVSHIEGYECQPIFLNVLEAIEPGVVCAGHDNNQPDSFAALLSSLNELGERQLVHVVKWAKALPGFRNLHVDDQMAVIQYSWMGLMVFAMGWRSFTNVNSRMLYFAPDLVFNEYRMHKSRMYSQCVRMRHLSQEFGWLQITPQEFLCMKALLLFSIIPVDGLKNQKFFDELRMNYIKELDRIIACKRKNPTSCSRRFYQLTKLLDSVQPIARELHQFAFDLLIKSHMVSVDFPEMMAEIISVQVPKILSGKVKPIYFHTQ
Assay: In Cell Western AR degradation assay in LNCaP cells
Assay type: cell-based
Conditions: 18 hrs, greater than 50% degradation at 10 μM (method says 20 μM)
In short: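 After 48 h plating in RPMI with 8% CFS, LNCaP cells were exposed to 20 μM test compound for 18 h, fixed with 3.7% formaldehyde and permeabilized. AR was detected with anti-AR N20 antibody and an infrared secondary, imaged by LI-COR Odyssey and normalized to DRAQ5 DNA stain.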

O=C1CCCC2=C1C(c1ccc([N+](=O)[O-])cc1)c1c(ccc3ccccc13)N2 (stereo not drawn) [Compound A1, 12-(4-nitrophenyl)-8,9,10,12-tetrahydrobenzo[a]acridin-11(7H)-one]
B9 = AR degradation in LNCaP cells (In-Cell Western): Degrader (Compounds that degrade AR (greater than 50% degradation at 10 μM) are indicated)

O=C1CCCC2=C1Nc1ccc3ccccc3c1C2c1ccc([N+](=O)[O-])cc1 (stereo not drawn) [Compound A10]
B9 = AR degradation in LNCaP cells (In-Cell Western): Degrader (Compounds that degrade AR (greater than 50% degradation at 10 μM) are indicated)

CC1CC(=O)C2=C(C1)Nc1ccc3ccccc3c1C2c1ccc(F)cc1 (stereo not drawn) [Compound A4]
B9 = AR degradation in LNCaP cells (In-Cell Western): Degrader (Compounds that degrade AR (greater than 50% degradation at 10 μM) are indicated)
